Source: patent US20180171411A1, “GFRalpha1 AS A BIOMARKER FOR CISPLATIN-INDUCED CHEMORESISTANCE AND METASTASIS” (THE BOARD OF REGENTS OF THE UNIVERSITY OF TEXAS SYSTEM, priority 2015, published 2018)

Tested on: LC3 puncta in MG-63 cells
Test: LC3 puncta formation (mRFP-GFP-LC3 reporter)
Assay type: cell-based, human
Details: for LC3 puncta formation: cisplatin 20 μM, 24 hr
Method: FIG. 3. GFRα1-induced autophagy enhances the chemoresistance of osteosarcoma cells induced by cisplatin. (a) Control and GFRα1-deficient MG-63 cells were transiently transfected with a mRFP-GFP tandem fluorescent-tagged LC3 (mRFP-GFP-LC3) vector and then treated with cisplatin (20μM) for 24 hr. Left, representative images of RFP-LC3 and GFP-LC3 puncta. Scale bar, 20 μm. Right, quantitative analysis of the number of yellow puncta and the number of RFP-LC3 puncta in the combined images. The values are represented as a mean±s.d.m. (n=3). ** denotes p<0.05 by t-test. (b) Control and GFRα1-deficient MG-63 cells were treated with cisplatin (20 μM) for 24 hr and then stained with acridine orange. Top, representative images of cells stained with acridine orange. Scale bar, 20 μm. Bottom, quantitative analysis of the number of AVOs. The values are represented as a mean±s.d.m. (n=3). ** denotes p<0.05 by t-test. (c) Control and GFRα1-deficient MG-63 cells were treated with cisplatin (20 μM) for 24 hr and then analyzed by TEM. Top, representative images of autophagic vacuoles (yellow arrows) detected after cisplatin treatment in control MG-63 cells. Scale bar, 100 nm. Bottom, quantitative analysis of the number of autophagic vacuoles. The values are represented as a mean±s.d.m. (n=3). ** denotes p<0.05 by t-test. (d) Immunoblot analysis of control and GFRα1-overexpressing osteosarcoma cell lysates with antibodies specific for GFRα1, LC3 and β-actin. GFRα1-overexpressing MG-63 cells were treated with DMSO, 3-MA (10 μM) or Baf (100 nM). (e) Quantitative analysis of the number of yellow puncta and the number of RFP-LC3 puncta in control and GFRα1-overexpressing MG-63 cells. Control and GFRα1-overexpressing MG-63 cells were transiently transfected with an RFP-GFP tandem fluorescent-tagged LC3 (mRFP-GFP-LC3) and then treated with cisplatin (20 μM) for 24 hr. […] (g) Control and GFRα1-overexpressing MG-63 cells were treated with cisplatin (20 μM) for 24 hr and then stained with acridine orange. Top, representative images of cells stained with acridine orange. Scale bar, 20 μm. Bottom, quantitative analysis of the number of AVOs. The values are represented as a mean±s.d.m. (n=3). ** denotes p<0.05 by t-test. (h) Control and GFRα1-overexpressing MG-63 cells were treated with cisplatin (20 μM) for 24 hr and then analyzed by TEM. Top, representative images of autophagic vacuoles detected after cisplatin treatment in control and GFRα1-overexpressing MG-63 cells. Scale bar, 100 nm. Bottom, quantitative analysis of the number of autophagic vacuoles. The values are represented as a mean±s.d.m. (n=3). ** denotes p<0.05 by t-test. (i) Cell viability of GFRα1-overexpressing osteosarcoma cells after cisplatin treatment in the presence of autophagy inhibitors. Control or GFRα1-overexpressing MG-63 cells were cultured with DMSO, 3-MA or Baf, and then treated with cisplatin (20 μM) for 24 hr. Cell viability was measured using the WST-1 assay. The values are represented as a mean±s.d.m. (n=3). ** denotes p<0.05 by t-test. (j) Cell viability of GFRα1-overexpressing osteosarcoma cells after cisplatin treatment in the presence of Beclin 1 (20 nM) or HMGB1 (20 nM) […] siRNA. Control or GFRα1-overexpressing MG-63 cells were cultured with Beclin 1 or HMGB1 siRNA for 48 hr and then treated with cisplatin (20 μM) for 24 hr. Cell viability was measured using the WST-1 assay. The values are represented as a mean±s.d.m. (n=3). ** denotes p<0.05 by t-test. (k) The effect of GFRα1 deficiency or overexpression on colony formation in the presence of cisplatin (20 μM). Equal number (1×10^4 cells) of control (control shRNA), GFRα1-deficient (GFRα1 shRNA), control (empty vector), and GFRα1-overexpressing (GFRα1 expressing vector) MG-63 cells were plated. All of cell lines were incubated with cisplatin (20 μM) for 10 days. Colonies were stained by crystal violet for visualization. Left, representative images of colony formation. Right, quantitative analysis of the number of colonies and plating efficiency. […]

Cn1cnc(N)c2ncnc1-2 [3-MA, 3-methyladenine]
cisplatin-induced puncta formation (MG-63 cells pretreated with 3-MA (10 mM) 2 hr, cisplatin 20 μM 24 hr): blocked
puncta formation (control and GFRα1-overexpressing cells, 3-MA pretreatment 2 hr): blocked

N.N.[Cl][Pt][Cl] [cisplatin, Cis-Diamineplatinum(II) dichloride]
LC3 puncta formation (GFRα1-deficient MG-63 cells): no change
LC3 puncta formation (MG-63 cells transfected with control shRNA): significantly increased

B1: GDNF: glial cell line-derived neurotrophic factor, the major ligand of GFRα1 (protein, UniProt P39905 78-211, looked up)
Glial cell line-derived …: SPDKQMAVLPRRERNRQAAAANPENSRGKGRRGQRGKNRGCVLTAIHLNVTDLGLGYETKEELIFRYCSGSCDAAETTYDKILKNLSRNRRLVSDKVGQACCRPIAFDDDLSFLDDNLVYHILRKHSAKRCGCI
GFRα1-mediated autophagy after cisplatin treatment (control and GFRα1-overexpressing MG-63 cells, GDNF): did not have an effect
LC3 puncta formation on addition of GDNF (control or GFRα1-overexpressing cells, GDNF 24 h): no significant effect
